{
  "source": "patent US20050233974A1",
  "about": "“Treating infectious diseases using ice inhibitors” (priority 2003, published 2005)",
  "key": {"[1]": {"system": "P. aeruginosa strain 19660", "assay": "corneal infection model, P. aeruginosa ATCC strain 19660", "assay_type": "in vivo, B6 mice", "procedure": "Eight week old female B6 mice (The Jackson Laboratory, Bar Harbor, Me.) were used in these experiments. The left cornea of each anesthetized mouse was scarified with three parallel 1 mm incisions using a sterile 25⅝ gauge needle under a stereoscopic microscope. […] Eyes were examined macroscopically at 1 day post-infection (p.i.) and at times described below to ensure that all mice were similarly infected and to monitor the course of disease. All animals were treated humanely and in full compliance with the Association for Research in Vision and Ophthalmology resolution on usage and treatment of animals in research.\nWorth, Tex.) begun at 18 h p.i. and then 3×/day for 7 days. Initiation of ICE inhibitor therapy at 18 h p.i. was chosen to test experimentally in order to provide more clinically relevant data. In addition, by this time point, it would be expected that a patient would notice ocular symptoms such as haziness, discomfort and pain and would seek care.\nMice (n=5/group) were color coded and examined in masked fashion by two independent observers at 1, 3, 5 and 7 days p.i. to grade the severity of disease after P. aeruginosa infection.\nThe samples were subjected to three freeze-thaw cycles and then centrifuged at 14,000 rpm for 20 min. […] The change in absorbance at 460 nm was continuously monitored for 5 min. The results were expressed as units of MPO/cornea.\nFor this, individual corneas were homogenized in sterile PBS and aliquots (100 μl) of serial dilutions were plated onto Pseudomonas isolation agar (Difco, Detroit, Mich.) plates in triplicate. Plates were incubated for 24 h at 37° C. Results were expressed as log10 number of CFU/cornea±SEM.\nCorneas (n=5/group) were removed at 7 days p.i. and immediately stored at −70° C. Before analysis, individual corneas were homogenized in 0.1% Tween 20-PBS with a glass Kontes pestle (Fisher, Itasca, Ill.) centrifuged at 5000×g for 10 minutes at 4° C., and supernatants were used to quantify IL-1β and MIP-2 proteins. Results are reported as pg/ml.\nThe change in clinical score with time within a group was tested by the Friedman two-way analysis of variance by ranks. The difference in clinical score at each experimental time point between the ICE inhibitor and placebo treated B6 mice was tested by the Mann-Whitney U test. An unpaired, two-tailed Student's t-test was used to determine statistical significance for data from MPO assay, bacterial counts and ELISA analyses between treated and control groups. Mean differences were considered significant at P≦0.05. Experiments were repeated at least twice to ensure reproducibility and representative data from a single experiment are shown."}, "[2]": {"system": "Pseudomonas isolates resistant to ciprofloxacin", "settings": "22 ciprofloxacin-resistant isolates of 141 culture-proven cases; cited from earlier work"}},
  "data": [
    {"smiles": "O=C(O)c1cn(C2CC2)c2cc(N3CCNCC3)c(F)cc2c1=O", "note": "[ciprofloxacin]", "values": [
      {"measurement": "histopathological examination of eyes", "setting": "[1]; 7 days p.i.", "value": "heavier inflammatory cells infiltrate in the anterior chamber and adherent to the corneal endothelium"},
      {"measurement": "viable bacteria in cornea (plate counts)", "setting": "[1]; 7 days p.i., ICE inhibitor vs. placebo (P=0.02)", "value": "No bacterial colonies were isolated"},
      {"measurement": "protein levels of MIP-2 in cornea (ELISA)", "setting": "[1]; 7 days p.i., ICE inhibitor vs. vehicle (P=0.012), with ciprofloxacin vs. vehicle and ciprofloxacin (P=0.04)", "value": "markedly reduced"},
      {"measurement": "protein levels of IL-1β in cornea (ELISA)", "setting": "[1]; 7 days p.i., ICE inhibitor vs. vehicle (P=0.023), with ciprofloxacin vs. vehicle and ciprofloxacin (P=0.036)", "value": "markedly reduced"},
      {"measurement": "slit lamp microscopy of cornea", "setting": "[1]; day 7 p.i.", "value": "heavier cellular infiltration in the cornea as well as in the anterior chamber"},
      {"measurement": "mean MIC", "setting": "[2]", "value": 43, "unit": "µg/mL"}
    ]}
  ]
}
